According to patent publication US12522623B2, “Small molecule STAT protein degraders” (THE REGENTS OF THE UNIVERSITY OF MICHIGAN, priority 2020, dated 2026):

How the values were obtained:
Format in all cases: cell-based
STAT1 = target: T1, STAT1 (Homo sapiens, UniProt P42224); assay: Fluorescent immunoblotting of STAT1 protein in MOLM-16 cells (estimated DC50); conditions: MOLM-16, 4 h
T1 construct: endogenous in cells; host or cells: MOLM-16 (acute leukemia cells)
T1 sequence (P42224 1-750): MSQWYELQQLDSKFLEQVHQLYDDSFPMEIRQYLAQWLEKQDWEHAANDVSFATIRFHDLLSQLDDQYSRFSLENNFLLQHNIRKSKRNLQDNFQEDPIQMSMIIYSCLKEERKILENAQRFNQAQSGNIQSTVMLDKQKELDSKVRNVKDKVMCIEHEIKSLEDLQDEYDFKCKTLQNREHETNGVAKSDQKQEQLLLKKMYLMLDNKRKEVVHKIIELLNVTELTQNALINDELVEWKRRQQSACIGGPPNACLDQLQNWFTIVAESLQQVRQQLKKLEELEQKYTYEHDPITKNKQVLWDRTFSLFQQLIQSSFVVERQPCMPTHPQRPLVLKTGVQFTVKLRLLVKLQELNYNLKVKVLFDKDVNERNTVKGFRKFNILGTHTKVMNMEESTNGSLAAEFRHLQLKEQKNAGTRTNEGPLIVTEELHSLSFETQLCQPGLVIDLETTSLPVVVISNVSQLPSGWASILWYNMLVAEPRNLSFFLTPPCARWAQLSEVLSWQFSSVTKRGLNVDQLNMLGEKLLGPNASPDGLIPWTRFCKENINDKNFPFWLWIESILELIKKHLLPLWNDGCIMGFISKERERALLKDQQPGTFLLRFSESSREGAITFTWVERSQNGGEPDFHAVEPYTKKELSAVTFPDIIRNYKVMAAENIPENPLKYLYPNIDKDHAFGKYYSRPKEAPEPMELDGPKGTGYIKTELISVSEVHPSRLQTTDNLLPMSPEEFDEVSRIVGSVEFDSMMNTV
Description: (§1) In vitro cultured cells or xenograft tumors were lysed 1×Cell Lysis Buffer (Cell Signaling Technology, #9803), resolved by SDS-PAGE NuPAGE gel (Thermo Fisher Scientific), and transferred to a PVDF membrane (Bio Rad). For chemiluminescence immunoblotting, membranes were blocked for 1 h using 5% Blotting-Grade Blocker (#1706404, Bio Rad) in 1×Tris-buffered saline with Tween 20 (TBST, Pierce). Antibodies used were: rabbit mAbs for STAT3 (Cell Signaling Technology, #4368, #12640) and p-STAT3 (Y705) (Cell Signaling Technology, #9245, #52075). HRP conjugated goat anti-rabbit IgG (H+L) (#A27036) secondary antibodies was from Thermo Fisher Scientific. GAPDH (Santa Cruz Technology, sc-47724HRP) and actin (Santa Cruz Technology, sc-8432HRP, sc-47778HRP) were loading controls. For fluorescent immunoblotting, membranes were blocked using Odyssey TBS Blocker Buffer (LI-COR). IRDye 680RD and 800CW Dye-labeled secondary antibodies (LI-COR) were used. The washed membranes were scanned using Odyssey CLx imager (LI-COR). The intensity of Western blot signaling was quantitated using the Odyssey software or Image Studio V5.2 (LI-COR).

STAT3 = target: T2, STAT3 (Homo sapiens, UniProt P40763); assay: Fluorescent immunoblotting of STAT3 protein in MOLM-16 cells (estimated DC50); conditions: MOLM-16, 4 h
T2 construct: endogenous in cells; host or cells: MOLM-16 (acute leukemia cells)
T2 sequence (P40763 whole entry): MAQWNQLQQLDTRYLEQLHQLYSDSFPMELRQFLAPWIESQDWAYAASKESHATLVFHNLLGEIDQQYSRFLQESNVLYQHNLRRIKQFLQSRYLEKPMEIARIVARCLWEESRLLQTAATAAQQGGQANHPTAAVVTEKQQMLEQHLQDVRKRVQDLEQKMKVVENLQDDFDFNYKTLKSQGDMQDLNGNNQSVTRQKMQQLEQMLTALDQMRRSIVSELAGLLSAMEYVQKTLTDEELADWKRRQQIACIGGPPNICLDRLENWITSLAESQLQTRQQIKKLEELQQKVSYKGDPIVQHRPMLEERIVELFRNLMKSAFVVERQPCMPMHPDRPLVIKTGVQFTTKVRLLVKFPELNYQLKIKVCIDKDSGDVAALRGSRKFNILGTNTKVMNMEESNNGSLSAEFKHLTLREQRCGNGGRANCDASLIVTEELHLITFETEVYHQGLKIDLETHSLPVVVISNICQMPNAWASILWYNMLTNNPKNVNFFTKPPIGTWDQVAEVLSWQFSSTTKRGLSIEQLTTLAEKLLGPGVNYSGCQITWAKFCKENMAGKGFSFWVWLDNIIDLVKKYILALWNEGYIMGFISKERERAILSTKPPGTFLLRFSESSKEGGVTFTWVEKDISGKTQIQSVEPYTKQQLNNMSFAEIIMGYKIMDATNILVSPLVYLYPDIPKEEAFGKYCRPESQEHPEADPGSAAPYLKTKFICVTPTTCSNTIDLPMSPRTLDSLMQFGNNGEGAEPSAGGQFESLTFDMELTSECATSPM
Description: as §1

MOLM-16 cells = assay: Cell growth inhibition, 4-day proliferation assay (CellTiter-Glo); conditions: MOLM16, 96 h; MOLM-16, 4 days
Description: The effect of representative Compounds of the Disclosure on cell viability was determined in a 4-day proliferation assay. Cells were maintained in the appropriate culture medium at 37° C. and an atmosphere of 5% CO2. All the cell lines were used within three months of thawing fresh vials. Cells were seeded in 384-well white plates (Corning Costar) at a density of 2,000 cells/well in 25 μl of culture medium. Compounds were serially diluted in the appropriate medium, and 25 μl of the diluted compounds were added to the cells. After the addition of compounds, the cells were incubated at 37° C. in an atmosphere of 5% CO2 for 4 days. Cell viability was determined using the CellTiter-Glo® Luminescent Cell Viability Assay Kit (Promega, Madison, WI) according to the manufacturers' instructions. Essentially, 50 μl of CellTiter-Glo® Reagent was added to each well, and then the plates were incubated at room temperature for 20 minutes. The luminescent signal was measured using a Tecan multimode microplate reader (Tecan, Morrisville, NC). The readings were normalized to the DMSO-treated cells and the IC50 was calculated by nonlinear regression (four parameters sigmoid fitted with variable slope, least squares fit, and no constraint) analysis using the GraphPad Prism software.

SMILES	DC50 (STAT1) [µM]	DC50 (STAT3) [µM]	IC50 (MOLM-16 cells) [µM]
COC(=O)N1CC[C@H]2CC[C@@H](C(=O)N[C@@H](CCCN)C(=O)N[C@@H](Cc3ccc(C(C)(C)C)cc3)C(=O)N3CCC(CCC#Cc4cccc5c4CN(C4CCC(=O)NC4=O)C5=O)CC3)N2C(=O)[C@@H](NC(=O)c2cc3cc(C(F)(F)P(=O)(O)O)ccc3s2)C1 (stereo partly drawn) [Cpd. No. 1, ((2-(((5S,8S,10aR)-8-(((2S)-5-amino-1-(((2S)-3-(4-(tert-butyl)phenyl)-1-(4-(4-(2-(2,6-dioxopiperidin-3-yl)-1-oxoisoindolin-4-yl)but-3-yn-1-yl)piperidin-1-yl)-1-oxopropan-2-yl)amino)-1-oxopentan-2-yl)carbamoyl)-3-(methoxycarbonyl)-6-oxodecahydropyrrolo[1,2-a][1,5]diazocin-5-yl)carbamoyl)benzo[b]thiophen-5-yl)difluoromethyl)phosphonic acid]	> 1	1	–
NC(=O)CC[C@H](NC(=O)[C@@H]1CC[C@@H]2CCN(C(=O)CCCCCC#Cc3cccc4c3CN(C3CCC(=O)NC3=O)C4=O)C[C@H](NC(=O)c3cc4cc(C(F)(F)P(=O)(O)O)ccc4s3)C(=O)N21)c1nc(Cc2ccccc2)cs1 (stereo partly drawn) [Cpd. No. 3, ((2-(((5S,8S,10aR)-8-(((S)-4-amino-1-(4-benzylthiazol-2-yl)-4-oxobutyl)carbamoyl)-3-(8-(2-(2,6-dioxopiperidin-3-yl)-1-oxoisoindolin-4-yl)oct-7-ynoyl)-6-oxodecahydropyrrolo[1,2-a][1,5]diazocin-5-yl)carbamoyl)benzo[b]thiophen-5-yl)difluoromethyl)phosphonic acid]	–	0.1	0.17
NC(=O)CC[C@H](NC(=O)[C@@H]1CC[C@@H]2CCN(C(=O)CCCCCC#Cc3cccc4c3CN(C3CCC(=O)NC3=O)C4=O)C[C@H](NC(=O)c3cc4cc(C(F)(F)P(=O)(O)O)ccc4s3)C(=O)N21)c1nc(-c2ccccc2)cs1 (stereo partly drawn) [Cpd. No. 4, ((2-(((5S,8S,10aR)-8-(((S)-4-amino-4-oxo-1-(4-phenylthiazol-2-yl)butyl)carbamoyl)-3-(8-(2-(2,6-dioxopiperidin-3-yl)-1-oxoisoindolin-4-yl)oct-7-ynoyl)-6-oxodecahydropyrrolo[1,2-a][1,5]diazocin-5-yl)carbamoyl)benzo[b]thiophen-5-yl)difluoromethyl)phosphonic acid]	–	0.2	0.14
NC(=O)CC[C@H](NC(=O)[C@@H]1CC[C@@H]2CCN(C(=O)CCCCCC#Cc3cccc4c3CN(C3CCC(=O)NC3=O)C4=O)C[C@H](NC(=O)c3cc4cc(C(F)(F)P(=O)(O)O)ccc4s3)C(=O)N21)c1ncc(Cc2ccccc2)s1 (stereo partly drawn) [Cpd. No. 5, ((2-(((5S,8S,10aR)-8-(((S)-4-amino-1-(5-benzylthiazol-2-yl)-4-oxobutyl)carbamoyl)-3-(8-(2-(2,6-dioxopiperidin-3-yl)-1-oxoisoindolin-4-yl)oct-7-ynoyl)-6-oxodecahydropyrrolo[1,2-a][1,5]diazocin-5-yl)carbamoyl)benzo[b]thiophen-5-yl)difluoromethyl)phosphonic acid]	–	0.1	0.049
NC(=O)CC[C@H](NC(=O)[C@@H]1CC[C@@H]2CCN(C(=O)CCCCCC#Cc3cccc4c3CN(C3CCC(=O)NC3=O)C4=O)C[C@H](NC(=O)c3cc4cc(C(F)(F)P(=O)(O)O)ccc4s3)C(=O)N21)c1nc2c(s1)Cc1ccccc1-2 (stereo partly drawn) [Cpd. No. 6, ((2-(((5S,8S,10aR)-8-(((S)-4-amino-1-(8H-indeno[1,2-d]thiazol-2-yl)-4-oxobutyl)carbamoyl)-3-(8-(2-(2,6-dioxopiperidin-3-yl)-1-oxoisoindolin-4-yl)oct-7-ynoyl)-6-oxodecahydropyrrolo[1,2-a][1,5]diazocin-5-yl)carbamoyl)benzo[b]thiophen-5-yl)difluoromethyl)phosphonic acid]	–	0.1	0.064
NC(=O)OC[C@H](NC(=O)[C@@H]1CC[C@@H]2CCN(C(=O)CCCCCC#Cc3cccc4c3CN(C3CCC(=O)NC3=O)C4=O)C[C@H](NC(=O)c3cc4cc(C(F)(F)P(=O)(O)O)ccc4s3)C(=O)N21)c1ncc(-c2ccccc2)s1 (stereo partly drawn) [Cpd. No. 8, ((2-(((5S,8S,10aR)-8-(((S)-2-(carbamoyloxy)-1-(5-phenylthiazol-2-yl)ethyl)carbamoyl)-3-(8-(2-(2,6-dioxopiperidin-3-yl)-1-oxoisoindolin-4-yl)oct-7-ynoyl)-6-oxodecahydropyrrolo[1,2-a][1,5]diazocin-5-yl)carbamoyl)benzo[b]thiophen-5-yl)difluoromethyl)phosphonic acid]	–	0.1	0.013
NC(=O)CC[C@H](NC(=O)[C@@H]1CC[C@@H]2CCN(C(=O)CCCCCC#Cc3cccc4c3CN(C3CCC(=O)NC3=O)C4=O)C[C@H](NC(=O)c3cc4cc(C(F)(F)P(=O)(O)O)ccc4s3)C(=O)N21)c1ncc(-c2ccc(F)cc2)s1 (stereo partly drawn) [Cpd. No. 9, ((2-(((5S,8S,10aR)-8-(((S)-4-amino-1-(5-(4-fluorophenyl)thiazol-2-yl)-4-oxobutyl)carbamoyl)-3-(8-(2-(2,6-dioxopiperidin-3-yl)-1-oxoisoindolin-4-yl)oct-7-ynoyl)-6-oxodecahydropyrrolo[1,2-a][1,5]diazocin-5-yl)carbamoyl)benzo[b]thiophen-5-yl)difluoromethyl)phosphonic acid]	–	0.05	0.06
NC(=O)CC[C@H](NC(=O)[C@@H]1CC[C@@H]2CCN(C(=O)CCCCCC#Cc3cccc4c3CN(C3CCC(=O)NC3=O)C4=O)C[C@H](NC(=O)c3cc4cc(C(F)(F)P(=O)(O)O)ccc4s3)C(=O)N21)c1nc(-c2ccc(F)c(Cl)c2)cs1 (stereo partly drawn) [Cpd. No. 14, ((2-(((5S,8S,10aR)-8-(((S)-4-amino-1-(4-(3-chloro-4-fluorophenyl)thiazol-2-yl)-4-oxobutyl)carbamoyl)-3-(8-(2-(2,6-dioxopiperidin-3-yl)-1-oxoisoindolin-4-yl)oct-7-ynoyl)-6-oxodecahydropyrrolo[1,2-a][1,5]diazocin-5-yl)carbamoyl)benzo[b]thiophen-5-yl)difluoromethyl)phosphonic acid]	–	0.05	0.037
NC(=O)CC[C@H](NC(=O)[C@@H]1CC[C@@H]2CCN(C(=O)CCCCCC#Cc3cccc4c3CN(C3CCC(=O)NC3=O)C4=O)C[C@H](NC(=O)c3cc4cc(C(F)(F)P(=O)(O)O)ccc4s3)C(=O)N21)c1ncc(-c2ccccc2F)s1 (stereo partly drawn) [Cpd. No. 16, ((2-(((5S,8S,10aR)-8-(((S)-4-amino-1-(5-(2-fluorophenyl)thiazol-2-yl)-4-oxobutyl)carbamoyl)-3-(8-(2-(2,6-dioxopiperidin-3-yl)-1-oxoisoindolin-4-yl)oct-7-ynoyl)-6-oxodecahydropyrrolo[1,2-a][1,5]diazocin-5-yl)carbamoyl)benzo[b]thiophen-5-yl)difluoromethyl)phosphonic acid]	–	0.05	0.068
CC(C)(C)c1ccc(-c2cnc([C@H](CCC(N)=O)NC(=O)[C@@H]3CC[C@@H]4CCN(C(=O)CCCCCC#Cc5cccc6c5CN(C5CCC(=O)NC5=O)C6=O)C[C@H](NC(=O)c5cc6cc(C(F)(F)P(=O)(O)O)ccc6s5)C(=O)N43)s2)cc1 (stereo partly drawn) [Cpd. No. 17, ((2-(((5S,8S,10aR)-8-(((S)-4-amino-1-(5-(4-(tert-butyl)phenyl)thiazol-2-yl)-4-oxobutyl)carbamoyl)-3-(8-(2-(2,6-dioxopiperidin-3-yl)-1-oxoisoindolin-4-yl)oct-7-ynoyl)-6-oxodecahydropyrrolo[1,2-a][1,5]diazocin-5-yl)carbamoyl)benzo[b]thiophen-5-yl)difluoromethyl)phosphonic acid]	–	0.2	–
